The record followed here is patent US4087461A, “Anti-androgenic steroids” (The Johns Hopkins University, priority 1977, dated 1978).

Assay [1] relates to competition with testosterone at the target tissue. The experiment in a line: study in castrate rats receiving testosterone propionate: prostatic weight. In kind it is in vivo, male Sprague-Dawley rats (castrated). The conditions noted are these: estryne 12mg/kg i.p. and testosterone propionate 0.3mg daily for seven days; castrated 10 days prior. As for the experimental part: To determine if the estryne competes with testosterone at the target tissue rats were orchiectomized under ether anesthesia via the scrotal route 10 days prior to treatment. Testosterone propionate 0.3 mg (0.2 ml sesame oil) was administered daily for 7 days subcutaneously. Estryne 12 mg/kg (0.2 ml propylene glycol) was given daily for 7 days interperitioneally. Control groups received either testosterone propionate (0.3 mg) or carrier oil daily for 7 days. The animals were sacrificed on the eighth day and the organs were weighed.
Animals castrated 10 days prior to treatment received both estryne (12mg/kg weight) and testosterone propionate (0.3mg) daily for seven days.

The next assay relates to immature uterus. The experiment in a line: study of estrogenic activity (uterine weight of immature mice). The following applies: 100 μg total dose over three days, sc.
Assay [2] relates to androgen biosynthesis stimulated by human chorionic gonadotropin. The experiment in a line: study in hypophysectomized rats stimulated with human chorionic gonadotropin: ventral prostate weight. In kind it is in vivo, hypophysectomized male Sprague-Dawley rats. As for the experimental part: In order to assess the action of the estryne in the presence of exogenous stimulation of androgen synthesis, hypophysectomized male rats received estryne 3.0 mg (0.2 ml sesame oil) sc and/or human chorionic gonadotropin 2 units and 4 units (0.9% saline) sc daily for 7 days. Sacrifice and weighing of the organs was performed on the eighth day.
The wet weight of the ventral prostate was decreased (20-25%) in hypophysectomized animal receiving estryne (12mg/kg body weight) and HGG (2 units) as compared to controls receiving just HGG (2 units).

Description for immature uterus: The animals were housed in a temperature controlled room under a constant lighting schedule and maintained on a diet of Charles River Rat Formula and water ad libitum. The diet of the hypophy-sectomized animals was supplemented with organges.
On the fourth day the uteri were removed and weighed.
Thus, immature female mice received estryne at doses up to a maximum of 100 μg total dose over three days, and the wet weight of the uteri were determined.

Turning to `C[C@]12CC[C@@H]3C(=O)CCC(=O)CC#CC[C@H]3[C@@H]1CCC2=O` [Compound 1, 5,10-secoestr-5-yne-3,10,17-trione], the “depression of prostatic weight” value in assay [1] was “No significant depression of prostatic weight”. In addition, the “stimulation of the immature uterus” value in the assay with immature uterus is listed as “no stimulation of the immature uterus”. For the same compound, the “decrease in wet weight of the ventral prostate” value in assay [2] (estryne 12mg/kg body weight and HCG 2 units, vs controls receiving HCG 2 units only, 7 days) was 20-25%. Besides, in assay [2] (higher doses of HCG, in words), the “effect on ventral prostate weight at higher doses of HCG” value is listed as “less pronounced”.
